Assay results: ChEMBL document CHEMBL3399969, “Multifunctional scutellarin-rivastigmine hybrids with cholinergic, antioxidant, biometal chelating and neuroprotective properties for the treatment of Alzheimer's disease” (Bioorg Med Chem, 2015)

How the values were obtained:
[1] = Inhibition of rat serum BuChE using butyrylthiocholine iodide as substrate after 15 mins by Ellman method; type: cell-free
[2] = Antioxidant activity assessed as trolox equivalent of […]-induced radical scavenging activity by ORAC-FL method; type: physicochemical
[3] = biological target: T1, Acetylcholinesterase (Rattus norvegicus, UniProt P37136); experiment: Inhibition of rat cortex AChE using acetylthiocholine iodide as substrate after 15 mins by Ellman method
T1 sequence (P37136 whole entry): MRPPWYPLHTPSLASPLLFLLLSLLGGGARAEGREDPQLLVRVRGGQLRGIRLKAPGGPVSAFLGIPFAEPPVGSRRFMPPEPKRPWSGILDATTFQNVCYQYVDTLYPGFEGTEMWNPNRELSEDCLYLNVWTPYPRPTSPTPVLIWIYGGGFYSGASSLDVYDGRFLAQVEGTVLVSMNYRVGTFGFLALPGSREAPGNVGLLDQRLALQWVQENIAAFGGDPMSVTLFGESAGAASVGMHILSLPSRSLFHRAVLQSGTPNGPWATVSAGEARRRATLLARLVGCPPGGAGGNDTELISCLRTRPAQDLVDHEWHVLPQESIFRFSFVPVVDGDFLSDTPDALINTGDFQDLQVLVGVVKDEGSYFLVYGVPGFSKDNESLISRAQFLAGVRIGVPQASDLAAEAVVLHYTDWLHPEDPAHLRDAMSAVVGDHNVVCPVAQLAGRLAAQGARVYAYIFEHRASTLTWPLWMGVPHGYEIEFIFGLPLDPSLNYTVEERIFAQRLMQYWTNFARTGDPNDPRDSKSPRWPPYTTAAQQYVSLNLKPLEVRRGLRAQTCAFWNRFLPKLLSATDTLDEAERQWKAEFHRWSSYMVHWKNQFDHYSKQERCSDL

[4] = test system: PC-12; experiment: Neuroprotective effect against H2O2-induced rat PC12 cell injury assessed as cell viability at 10 uM incubated for 2 hrs prior to H2O2 challenge measured after 24 hrs by MTT assay (reference value: 57.6%); type: functional; conditions: read-out: Activity
[5] = species: Rattus norvegicus; experiment: Selectivity index, ratio of IC50 for rat serum BuChE to IC50 for rat cortex AChE; type: cell-free

Structure (SMILES) | IC50 [1] [µM] | Activity [2] | IC50 [3] [µM] | viability at 10 µM [4] [%] | Ratio IC50 [5]
COc1cc2oc(-c3ccc(O)cc3)cc(=O)c2c(OC)c1OC | > 100 | 2.6 | > 100 | – | –
CCN(C)C(=O)Oc1cccc(-c2cc(=O)c3c(OC)c(OC)c(OC)cc3o2)c1 | 38.1 | 0.32 | 7.37 | 70.8 | 5.2
COc1cc2oc(-c3cccc(OC(=O)N4CCN(Cc5ccccc5)CC4)c3)cc(=O)c2c(O)c1OC | 15.7 | 1.3 | 51.7 | 80.3 | 0.3
COc1cc2oc(-c3cccc(OC(=O)N(C(C)C)C(C)C)c3)cc(=O)c2c(O)c1OC | > 100 | 1.1 | 96.5 | – | > 1
CCN(CC)C(=O)Oc1cccc(-c2cc(=O)c3c(OC)c(OC)c(OC)cc3o2)c1 | 30.1 | 0.31 | 6.11 | 70.8 | 4.9
COc1cc2oc(-c3cccc(OC(=O)N4CCOCC4)c3)cc(=O)c2c(OC)c1OC | > 100 | 0.29 | > 100 | – | –
CCN(C)C(=O)Oc1cccc(-c2cc(=O)c3c(O)c(OC)c(OC)cc3o2)c1 | > 100 | 0.9 | 14.8 | – | > 6.8
COc1cc2oc(-c3ccc(OC(=O)N4CCN(C)CC4)cc3)cc(=O)c2c(O)c1OC | > 100 | 1 | 5 | – | > 20
COc1cc2oc(-c3cccc(OC(=O)N4CCN(Cc5ccccc5)CC4)c3)cc(=O)c2c(OC)c1OC | 7.1 | 0.34 | 87.1 | – | 0.1
COc1cc2oc(-c3cccc(OC(=O)N(C)C)c3)cc(=O)c2c(O)c1OC | 23.6 | 1.2 | 25.7 | – | 0.9
COc1cc2oc(-c3ccc(OC(=O)N4CCOCC4)cc3)cc(=O)c2c(O)c1OC | > 100 | 0.9 | > 100 | 66.5 | –
CCN(CC)C(=O)Oc1cccc(-c2cc(=O)c3c(O)c(OC)c(OC)cc3o2)c1 | 34.5 | 1.3 | 10.3 | – | 3.3
COc1cc2oc(-c3cccc(O)c3)cc(=O)c2c(OC)c1OC | > 100 | 1.8 | > 100 | – | –
COc1cc2oc(-c3ccc(OC(=O)N4CCOCC4)cc3)cc(=O)c2c(OC)c1OC | > 100 | 0.27 | 68.3 | – | > 1.5
COc1cc2oc(-c3ccc(OC(=O)N(C(C)C)C(C)C)cc3)cc(=O)c2c(O)c1OC | > 100 | 1 | > 100 | 68.7 | –
COc1cc2oc(-c3cccc(OC(=O)N4CCCCC4)c3)cc(=O)c2c(O)c1OC | > 100 | 1.1 | > 100 | – | –
COc1cc2oc(-c3cccc(OC(=O)N4CCN(C)CC4)c3)cc(=O)c2c(O)c1OC | 68.2 | 1.2 | 23.3 | – | 2.9
COc1cc2oc(-c3ccc(OC(=O)N(C(C)C)C(C)C)cc3)cc(=O)c2c(OC)c1OC | 38.2 | 0.33 | 13.7 | – | 2.8
COc1cc2oc(-c3cccc(OC(=O)N(C(C)C)C(C)C)c3)cc(=O)c2c(OC)c1OC | > 100 | 0.3 | 87.5 | – | > 1.1
COc1cc2oc(-c3ccc(O)cc3)cc(=O)c2c(O)c1OC [CIRSIMARITIN] | > 100 | 5.4 | > 100 | – | –
COc1cc2oc(-c3cccc(O)c3)cc(=O)c2c(O)c1OC | > 100 | 3.7 | > 100 | – | –
COc1cc2oc(-c3cccc(OC(=O)N4CCOCC4)c3)cc(=O)c2c(O)c1OC | > 100 | 1.2 | > 100 | 66.1 | –
